Laboratory results published in ChEMBL document CHEMBL3507680, “University of Dundee, Gates Library screen for HepG2 cell viability”.

Assay: Human HepG2 cell viability assay in 384 well format
Assay type: toxicity, cell-based
Set-up: dose 125 nL, time 70.5 hour; concentration not given beside the values
Conditions: HepG2 cells, read-out: Inhibition

SMILES: Cc1cc(C(=O)N2CCc3c(CN(C)C(C)C)n[nH]c3C2)[nH]n1
- cytotoxicity at 70.5 h: 0.919%

SMILES: COCC(=O)N1CCCn2c(CN3CCCC3)nnc2C1
- cytotoxicity at 70.5 h: -4.43%

SMILES: CCNC(=O)N1CCC2(C1)c1ccccc1S(=O)(=O)N2CCOC (stereo unspecified)
- cytotoxicity at 70.5 h: 5.14%

SMILES: CCCS(=O)(=O)N1C[C@@H](c2nc(C)no2)C[C@H]2OCC[C@H]21
- cytotoxicity at 70.5 h: -0.391%

SMILES: CC(=O)N1CC[C@@H]2O[C@@H](COCC(=O)N3CCCC3)CC[C@@H]21
- cytotoxicity at 70.5 h: 23.9%

SMILES: COc1cc(N2C[C@H](C(=O)N3CCCC3)[C@@H]3CCO[C@@H]3C2)ncn1
- cytotoxicity at 70.5 h: -0.329%

SMILES: CCN1C(=O)CC[C@@H]2[C@H]1CCN2S(=O)(=O)Cc1ccc(C)cc1
- cytotoxicity at 70.5 h: -0.603%

SMILES: CS(=O)(=O)N1CCOCC2(CCN(C(=O)c3cnccn3)CC2)C1
- cytotoxicity at 70.5 h: 17.6%

SMILES: COCc1nn(C(C)C)c2c1CCN(Cc1ccsc1)C2
- cytotoxicity at 70.5 h: -5.82%

SMILES: CN(C)C(=O)c1nn(C)c2c1CN(Cc1ccoc1)C2
- cytotoxicity at 70.5 h: -7.04%

SMILES: CCN1C(=O)C[C@@H]2[C@@H]1CCN2S(=O)(=O)Cc1ccc(C)cc1
- cytotoxicity at 70.5 h: 1.97%

SMILES: Cc1nc(CO[C@@H]2CN(Cc3ccccn3)[C@@H]3COC[C@@H]32)cs1
- cytotoxicity at 70.5 h: -7.36%

SMILES: Cc1nc(CO[C@@H]2CN(Cc3ccc(F)cc3)[C@@H]3COC[C@@H]32)cs1
- cytotoxicity at 70.5 h: -7.17%

SMILES: Cc1ccc(CN2Cc3c(cnn3C)C(COCC3CC3)C2)s1 (stereo unspecified)
- cytotoxicity at 70.5 h: 35.1%

SMILES: CN(C)S(=O)(=O)N1CCC2(COCc3cnc(NCC4CC4)nc32)C1 (stereo unspecified)
- cytotoxicity at 70.5 h: 29.2%

SMILES: COCC(=O)N1CCC2(CCN(c3cnn(C)c3)C2=O)C1 (stereo unspecified)
- cytotoxicity at 70.5 h: 34.5%

SMILES: CCCS(=O)(=O)N1CCC2(CCN(Cc3cccc(F)c3)C2=O)C1 (stereo unspecified)
- cytotoxicity at 70.5 h: 36.3%

SMILES: N#Cc1ccc(OC[C@]23COC[C@H]2CN(Cc2ccccn2)C3)nc1
- cytotoxicity at 70.5 h: 0.477%

SMILES: Cc1cnc(C(=O)N2CCCC3(CCN(c4cnn(C)c4)C3=O)C2)cn1 (stereo unspecified)
- cytotoxicity at 70.5 h: -3.83%

SMILES: Cn1cc(N2CCC3(CCCN(C(=O)c4ccnn4C)C3)C2=O)cn1 (stereo unspecified)
- cytotoxicity at 70.5 h: -4.7%

SMILES: c1cc(-c2ccc3c(c2)C2(CC3)CCN(c3nncs3)CC2)ccn1
- cytotoxicity at 70.5 h: 1.28%

SMILES: O=S(=O)(C1CC1)N1CCC2(COCc3cnc(NCC4CC4)nc32)C1 (stereo unspecified)
- cytotoxicity at 70.5 h: -6.1%

SMILES: Cc1noc(C)c1CN1C[C@@H]2COC[C@]2(COc2ccc(C#N)cn2)C1
- cytotoxicity at 70.5 h: -2.55%

SMILES: COC[C@@]12CCO[C@@H]1CCN(C(=O)Cc1ccccc1C)C2
- cytotoxicity at 70.5 h: -3.36%

SMILES: COC[C@@]12CCO[C@@H]1CCN(C(=O)CCc1ccccc1Cl)C2
- cytotoxicity at 70.5 h: -3.89%

SMILES: Cc1nn(Cn2ccc(C(=O)N3CCC(C)CC3)n2)c(C)c1Cl
- cytotoxicity at 70.5 h: -13.2%

SMILES: CC(C(=O)O)n1nc(C(F)(F)F)c(Cl)c1C1CC1 (stereo unspecified)
- cytotoxicity at 70.5 h: 5.37%

SMILES: Cc1ccc(OCc2ccc(C(=O)O)s2)cc1C
- cytotoxicity at 70.5 h: -6.36%

SMILES: CCn1cc(Cn2cc(Cl)c(N)n2)c(C)n1
- cytotoxicity at 70.5 h: -2.35%

SMILES: COc1cc(C(F)(F)F)sc1C(=O)O
- cytotoxicity at 70.5 h: -6.37%

SMILES: O=C(O)Cn1nc(C2CC2)c2c(-c3cccs3)ccnc21
- cytotoxicity at 70.5 h: 25.1%

SMILES: CCNC(=O)Cc1n[nH]c(-c2cncc(Br)c2)n1
- cytotoxicity at 70.5 h: 32%

SMILES: CCC(=O)Nc1c(C)nn(COc2cccc(F)c2)c1C
- cytotoxicity at 70.5 h: -2.04%

SMILES: CCS(=O)(=O)Nc1cnn(Cc2cccc(Cl)c2)c1
- cytotoxicity at 70.5 h: -10.7%

SMILES: CCn1cc(CN(C)S(=O)(=O)c2ccc(C(C)C)cc2)cn1
- cytotoxicity at 70.5 h: -6.2%

SMILES: CCCNC(=O)c1nn(CC)cc1Cl
- cytotoxicity at 70.5 h: -3.27%

SMILES: CSc1ccc(CNc2n[nH]c(C)n2)cc1
- cytotoxicity at 70.5 h: 44.9%

SMILES: Cn1nnc(NCc2ccc(-c3ccc(Br)cc3)o2)n1
- cytotoxicity at 70.5 h: -9.29%

SMILES: CCn1nnc(NCc2ccc(-c3ccc(Br)cc3)o2)n1
- cytotoxicity at 70.5 h: -7.12%

SMILES: CCCn1nnc(NCc2cc(Br)cc(Br)c2OC)n1
- cytotoxicity at 70.5 h: -9.35%

SMILES: C=C/C=c1\c(=C/C)oc2c(NCc3ccccc3)ncnc12
- cytotoxicity at 70.5 h: 10.6%

SMILES: CCOCCCNc1cc(C)nn2cnnc12
- cytotoxicity at 70.5 h: 7.54%

SMILES: C=C/C=c1\c(=C/C)oc2c(NCc3ccccc3)nc(C)nc12
- cytotoxicity at 70.5 h: 13.2%

SMILES: CN1CCc2c1nc1c(c2N)CCC1
- cytotoxicity at 70.5 h: -7.38%

SMILES: O=C(O)Cn1ccc2c(Cl)cccc21
- cytotoxicity at 70.5 h: -1.23%

SMILES: Cc1ccc(NC(=O)c2n[nH]c(-n3cnnc3)n2)cc1
- cytotoxicity at 70.5 h: -8.15%

SMILES: Cc1c2ncn(CC(=O)NC(C)C)c(=O)c2nn1C
- cytotoxicity at 70.5 h: 3.83%

SMILES: O=c1c2cc3c(cc2nnn1Cc1cccc(F)c1)OCCO3
- cytotoxicity at 70.5 h: -9.5%

SMILES: Cc1ccccc1Cn1nnc2cc3c(cc2c1=O)OCCO3
- cytotoxicity at 70.5 h: -9.38%

SMILES: CCn1nc(C)c(NC(=O)C(C)C)c1C
- cytotoxicity at 70.5 h: -2.76%

SMILES: Cc1nn(C)c2c(=O)n(Cc3ccccc3)nnc12
- cytotoxicity at 70.5 h: -13.5%

SMILES: Cc1nn(C)c2c(NCc3ccccn3)ncnc12
- cytotoxicity at 70.5 h: -2.17%

SMILES: Cc1nc(NC2CC2)c2c(n1)c(C)nn2C
- cytotoxicity at 70.5 h: -18.4%

SMILES: Cc1nc(NCc2ccccn2)c2c(n1)c(C)nn2C
- cytotoxicity at 70.5 h: 5.97%

SMILES: COc1ccc(Nc2nc3c(C)nn(C)c3c(=O)n2C)cc1
- cytotoxicity at 70.5 h: 29.7%

SMILES: COc1ccc(C)cc1Nc1nc2c(C)nn(C)c2c(=O)n1C
- cytotoxicity at 70.5 h: -5.48%
